Key:
[1] = target: human DGKα (Homo sapiens (Human), UniProt P23743); assay: DGKα Biochemical Activity Assay (ADP-Glo); conditions: recombinant DGKα 1 nM, 100 μM ATP, 18:1 DAG/POPS/octylglucoside micelles, 1 hour at 25° C.; geometric mean; read-out: HTBS DGKa 1X ATP KM IC50
Procedure, shortened: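 Recombinant DGKα (1 nM final) was preincubated with compound for 15 min, then reacted for 1 h at 25 °C with 100 μM ATP and octylglucoside micelles of 0.85 mM 18:1 DAG and 6.75 mM POPS in pH 7.2 MOPS with 5 mM MgCl2. ADP formed was read by ADP-Glo luminescence. IC50 came from four-parameter fits normalized to DMSO and 50 μM CU3, and values were geometric means.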

[2] = tested on: Jurkat NFκB-luciferase cells; assay: Jurkat NFκB-Luciferase Assay; type: cell-based; conditions: Homo sapiens; Jurkat NFκB-luciferase cells activated with anti-CD3 antibody (OKT3), 2.5 hrs at 37° C.; geometric mean; read-out: DGK NFKb Luciferase EC50
Procedure, shortened: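 Jurkat NFκB-luciferase reporter cells stimulated on plate-bound anti-CD3 (5 ug/ml coating) with compound, 2.5 hrs at 37° C then 30 min at 25° C; luminescence read with One-Glo Ex. Normalized to DMSO (basal) and 1 micromolar compound (maximum) controls; EC50 from four-parameter fit, geometric mean across experiments.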

Chain of human DGKα (P23743 whole entry): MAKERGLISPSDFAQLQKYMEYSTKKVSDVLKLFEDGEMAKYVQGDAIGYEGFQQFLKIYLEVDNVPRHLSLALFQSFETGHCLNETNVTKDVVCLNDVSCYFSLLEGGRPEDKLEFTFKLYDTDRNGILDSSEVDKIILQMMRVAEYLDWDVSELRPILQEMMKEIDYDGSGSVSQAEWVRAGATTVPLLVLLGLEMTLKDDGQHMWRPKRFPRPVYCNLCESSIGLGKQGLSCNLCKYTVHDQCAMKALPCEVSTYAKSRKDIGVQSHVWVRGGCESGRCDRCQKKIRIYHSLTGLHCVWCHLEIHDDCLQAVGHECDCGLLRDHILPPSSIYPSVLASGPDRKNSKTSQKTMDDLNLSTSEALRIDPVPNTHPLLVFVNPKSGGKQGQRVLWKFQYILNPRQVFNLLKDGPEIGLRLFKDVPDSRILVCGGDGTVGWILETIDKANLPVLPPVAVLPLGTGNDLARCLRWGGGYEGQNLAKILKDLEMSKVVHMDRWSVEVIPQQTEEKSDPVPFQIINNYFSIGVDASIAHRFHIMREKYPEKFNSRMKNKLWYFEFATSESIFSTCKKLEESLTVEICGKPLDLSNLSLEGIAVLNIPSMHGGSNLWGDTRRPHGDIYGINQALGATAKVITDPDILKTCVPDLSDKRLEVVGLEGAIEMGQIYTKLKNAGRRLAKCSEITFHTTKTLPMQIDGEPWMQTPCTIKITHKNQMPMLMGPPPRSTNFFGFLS

SMILES | IC50 [1] [nM] | EC50 [2] [nM]
Cc1nnc2nc(N(CC(F)F)c3cc(F)cc(C#CC4(C(F)(F)F)CC4)c3)c3ncccc3n12 [Example 18, N-(2,2-difluoroethyl)-N-(3-fluoro-5-((1-(trifluoromethyl)cyclopropyl)ethynyl)phenyl)-1-methylpyrido[2,3-e][1,2,4]triazolo[4,3-a]pyrimidin-5-amine] | 64.4 | 4.73
CC(C)(O)C#Cc1cc(F)cc(N(CC(F)F)c2nc3nncn3c3cccnc23)c1 [Example 19, 4-(3-((2,2-difluoroethyl)(pyrido[2,3-e][1,2,4]triazolo[4,3-a]pyrimidin-5-yl)amino)-5-fluorophenyl)-2-methylbut-3-yn-2-ol] | 67.6 | 47.7
Cc1nnc2nc(N(CC(F)F)c3cc(F)cc(C#CC(C)(C)O)c3)c3ncccc3n12 [Example 17, 4-(3-((2,2-difluoroethyl)(1-methylpyrido[2,3-e][1,2,4]triazolo[4,3-a]pyrimidin-5-yl)amino)-5-fluorophenyl)-2-methylbut-3-yn-2-ol] | 77.7 | 44.3
Cc1nnc2nc(N3CCCc4c(C#CC(C)(C)O)cccc43)c3cc(F)cnc3n12 [Example 98, 4-(1-(3-fluoro-9-methylpyrido[3,2-e][1,2,4]triazolo[4,3-a]pyrimidin-5-yl)-1,2,3,4-tetrahydroquinolin-5-yl)-2-methylbut-3-yn-2-ol] | 49 | 26.2
CN(c1cc(F)cc(C#CC(C)(C)O)c1)c1nc2nnnn2c2ccc(F)cc12 [Example 13, 4-(3-fluoro-5-((7-fluorotetrazolo[1,5-a]quinazolin-5-yl)(methyl)amino)phenyl)-2-methylbut-3-yn-2-ol] | 12.8 | 7.54
Cc1nnc2nc(N(CC(F)F)c3ccnc(C#CC(C)(C)O)c3)c3c(F)cncc3n12 [Example 52, 4-(4-((2,2-difluoroethyl)(6-fluoro-1-methylpyrido[4,3-e][1,2,4]triazolo[4,3-a]pyrimidin-5-yl)amino)pyridin-2-yl)-2-methylbut-3-yn-2-ol] | 204 | 1000
Cc1nnc2nc(N3CCCCc4c(C#CC(C)(C)O)cccc43)c3c(F)cncc3n12 [Example 66, 4-(1-(6-fluoro-1-methylpyrido[4,3-e][1,2,4]triazolo[4,3-a]pyrimidin-5-yl)-2,3,4,5-tetrahydro-1H-benzo[b]azepin-6-yl)-2-methylbut-3-yn-2-ol] | 6.14 | 15.9
CN(c1cccc(Cl)c1)c1nc2nncn2c2nc(N)ccc12 [Example 132, N5-(3-chlorophenyl)-N5-methylpyrido[3,2-e][1,2,4]triazolo[4,3-a]pyrimidine-2,5-diamine] | 388 | 91.4
CN(c1cccc(-c2ccc(C3CC3)nc2)c1)c1nc2nncn2c2cnccc12 [Example 62, N-[3-(6-cyclopropyl-3-pyridyl)phenyl]-N-methyl-2,4,5,7,12-pentazatricyclo[7.4.0.02,6]trideca-1(13),3,5,7,9,11-hexaen-8-amine] | 159 | 27.7
COc1ccc2c(N(C)c3cccc(-c4ccc(C(F)F)cc4)c3)nc3nncn3c2n1 [Example 130, N-(4′-(difluoromethyl)-[1,1′-biphenyl]-3-yl)-2-methoxy-N-methylpyrido[3,2-e][1,2,4]triazolo[4,3-a]pyrimidin-5-amine] | 55 | 2.52
CN(c1cc(F)cc(C#CC2(C(F)F)CC2)c1)c1nc2nnnn2c2ccc(F)cc12 [Example 14] | 65.7 | 1.54
Cc1nnc2nc(N3CCCc4c3ccnc4C#CC(C)(C)C#N)c3c(F)cncc3n12 [Example 31, 4-(1-(6-fluoro-1-methylpyrido[4,3-e][1,2,4]triazolo[4,3-a]pyrimidin-5-yl)-1,2,3,4-tetrahydro-1,6-naphthyridin-5-yl)-2,2-dimethylbut-3-ynenitrile] | 72.3 | 81.1
COc1ccc2c(N(C)c3cccc(C#CC(C)(C)O)c3)nc3nncn3c2n1 [Example 114, 4-(3-((2-methoxypyrido[3,2-e][1,2,4]triazolo[4,3-a]pyrimidin-5-yl)(methyl)amino)phenyl)-2-methylbut-3-yn-2-ol] | 75.4 | 27

Continued by falling IC50 [1], values first:

IC50 [1] [nM] | EC50 [2] [nM] | SMILES
32 | 3.18 | CN(c1cccc(C#CC(C)(C)C)c1)c1nc2nncn2c2ncc(F)cc12 [Example 152]
26.2 | 4.82 | Cc1nnc2nc(N3CCCc4c(C#CC5(C(F)(F)F)CC5)cncc43)c3c(F)cncc3n12 [Example 39, 6-fluoro-1-methyl-5-(5-((1-(trifluoromethyl)cyclopropyl)ethynyl)-3,4-dihydro-1,7-naphthyridin-1(2H)-yl)pyrido[4,3-e][1,2,4]triazolo[4,3-a]pyrimidine]
22.4 | 3.24 | CN(c1cc(F)cc(C#CC2(C(F)(F)F)CC2)c1)c1nc2nnnn2c2ccc(F)cc12 [Example 16]
21.2 | 8.37 | Cc1nnc2nc(N3CCCc4c(C#CC5(CF)CC5)cccc43)c3ncccc3n12 [Example 26, 5-(5-((1-(fluoromethyl)cyclopropyl)ethynyl)-3,4-dihydroquinolin-1(2H)-yl)-1-methylpyrido[2,3-e][1,2,4]triazolo[4,3-a]pyrimidine]
19.3 | 0.664 | CNc1ccc2c(N(C)c3cccc(-c4ccc(C5CC5)cc4)c3)nc3nncn3c2n1 [Example 120, N5-(4′-cyclopropyl-[1,1′-biphenyl]-3-yl)-N2,N5-dimethylpyrido[3,2-e][1,2,4]triazolo[4,3-a]pyrimidine-2,5-diamine]
15.7 | 1.31 | CN(c1cc(F)cc(-c2cnc(C3CC3)cn2)c1)c1nc2nnnn2c2ccc(F)cc12 [Example 6, N-(3-(5-cyclopropylpyrazin-2-yl)-5-fluorophenyl)-7-fluoro-N-methyltetrazolo[1,5-a]quinazolin-5-amine]
13.7 | 20.7 | CCC(C)(O)C#Cc1cccc2c1CCCN2c1nc2nncn2c2ncc(F)cc12 (stereo not drawn) [Example 148, 1-(1-(3-fluoropyrido[3,2-e][1,2,4]triazolo[4,3-a]pyrimidin-5-yl)-1,2,3,4-tetrahydroquinolin-5-yl)-3-methylpent-1-yn-3-ol]
11.9 | 1.85 | Cc1nnc2nc(N3CCCc4c(C#CC5(C)CC5)cccc43)c3cc(F)cnc3n12 [Example 107, 3-fluoro-9-methyl-5-(5-((1-methylcyclopropyl)ethynyl)-3,4-dihydroquinolin-1(2H)-yl)pyrido[3,2-e][1,2,4]triazolo[4,3-a]pyrimidine]
11.5 | 7.69 | CN(c1cccc(-c2ccc(C(F)F)cc2)c1)c1nc2nncn2c2nc(N)ccc12 [Example 131, N5-(4′-(difluoromethyl)-[1,1′-biphenyl]-3-yl)-N5-methylpyrido[3,2-e][1,2,4]triazolo[4,3-a]pyrimidine-2,5-diamine]
8.71 | 12 | CC(C)(O)C#Cc1cccc2c1CCCN2c1nc2nncn2c2ncc(F)cc12 [Example 149, 4-(1-(3-fluoropyrido[3,2-e][1,2,4]triazolo[4,3-a]pyrimidin-5-yl)-1,2,3,4-tetrahydroquinolin-5-yl)-2-methylbut-3-yn-2-ol]
6.95 | 31.2 | Cc1nnc2nc(N3CCOCc4c(C#Cc5cnn(C)c5)cccc43)c3c(F)cncc3n12 [Example 95, 1-(6-fluoro-1-methylpyrido[4,3-e][1,2,4]triazolo[4,3-a]pyrimidin-5-yl)-6-((1-methyl-1H-pyrazol-4-yl)ethynyl)-1,2,3,5-tetrahydrobenzo[e][1,4]oxazepane]
6.42 | 2.25 | Cc1nnc2nc(N(CC(F)F)c3cc(F)cc(C#CC4(C(F)(F)F)CC4)c3)c3cc(F)cnc3n12 [Example 106, N-(2,2-difluoroethyl)-3-fluoro-N-(3-fluoro-5-((1-(trifluoromethyl)cyclopropyl)ethynyl)phenyl)-9-methylpyrido[3,2-e][1,2,4]triazolo[4,3-a]pyrimidin-5-amine]
6.21 | 1.01 | Cc1nnc2nc(N3CCCc4c(C#CC5(C(F)(F)F)CC5)cccc43)c3cc(F)cnc3n12 [Example 101, 3-fluoro-9-methyl-5-(5-((1-(trifluoromethyl)cyclopropyl)ethynyl)-3,4-dihydroquinolin-1(2H)-yl)pyrido[3,2-e][1,2,4]triazolo[4,3-a]pyrimidine]
5.62 | 1.75 | CC1(C#Cc2cccc3c2CCCN3c2nc3nncn3c3ncc(F)cc23)CC1 [Example 109, 3-fluoro-5-(5-((1-methylcyclopropyl)ethynyl)-3,4-dihydroquinolin-1(2H)-yl)pyrido[3,2-e][1,2,4]triazolo[4,3-a]pyrimidine]
4.38 | 4.24 | CC(C)(C#N)C#Cc1cccc2c1CCCN2c1nc2nncn2c2ncc(F)cc12 [Example 147, 4-(1-(3-fluoropyrido[3,2-e][1,2,4]triazolo[4,3-a]pyrimidin-5-yl)-1,2,3,4-tetrahydroquinolin-5-yl)-2,2-dimethylbut-3-ynenitrile]
4.17 | 3.45 | Cc1nnc2nc(N3CCCOc4c(C#CC5(C)CC5)cccc43)c3c(F)cncc3n12 [Example 73, 5-(6-fluoro-1-methylpyrido[4,3-e][1,2,4]triazolo[4,3-a]pyrimidin-5-yl)-9-((1-methylcyclopropyl)ethynyl)-2,3,4,5-tetrahydrobenzo[b][1,4]oxazepine]
3.35 | 10.4 | Cc1nnc2nc(N3CCOCc4c(C#CC(C)(C)C#N)cccc43)c3cc(F)cnc3n12 [Example 136]

Source: US11926628B2 (Gilead Sciences, Inc., priority 2021, dated 2024)
